# Target: T1, P2X7 receptor (Homo sapiens, UniProt Q99572)
# T1 construct: host or cells: THP-1 cells differentiated with LPS and IFN-γ
# T1 sequence (Q99572 1-595): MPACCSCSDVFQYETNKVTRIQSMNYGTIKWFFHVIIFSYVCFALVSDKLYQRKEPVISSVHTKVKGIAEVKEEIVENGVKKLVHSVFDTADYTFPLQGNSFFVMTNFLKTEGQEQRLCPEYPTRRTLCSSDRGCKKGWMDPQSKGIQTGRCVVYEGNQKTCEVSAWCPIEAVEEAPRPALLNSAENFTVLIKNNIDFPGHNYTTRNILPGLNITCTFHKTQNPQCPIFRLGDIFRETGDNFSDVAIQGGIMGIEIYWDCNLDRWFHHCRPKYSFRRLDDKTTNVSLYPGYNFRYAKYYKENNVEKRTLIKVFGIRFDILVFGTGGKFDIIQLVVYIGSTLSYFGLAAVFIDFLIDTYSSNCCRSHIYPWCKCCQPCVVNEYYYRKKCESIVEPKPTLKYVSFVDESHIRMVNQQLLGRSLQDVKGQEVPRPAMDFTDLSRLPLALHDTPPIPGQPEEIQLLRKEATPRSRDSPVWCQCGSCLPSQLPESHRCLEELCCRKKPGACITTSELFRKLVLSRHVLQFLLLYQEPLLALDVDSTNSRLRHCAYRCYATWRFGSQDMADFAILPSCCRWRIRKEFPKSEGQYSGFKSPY
# Test: IL-1β release assay (BzATP-stimulated, LPS/IFN-γ differentiated THP-1 cells, ELISA)
# Format: cell-based
# Conditions: at 0.1 μM (asterisk symbols)
# Description: THP-1 cells (ATCC Cat # 285-IF-100) are plated in 96 well plates at a concentration of 200,000 cells per well and allowed to differentiate in RPMI-1640 media (ATCC Cat # 30-2001) containing 10% FBS, 100 IU/mL penicillin, 100 ug/mL streptomycin, 100 ng/mL LPS and 100 ng/mL IFN-γ for 16 hours. Following differentiation, the cells are treated for an additional 2 hours in RPMI-1640 media containing 100 IU/mL penicillin, 100 ug/mL streptomycin and fresh LPS at 100 ng/mL. The cells are then pretreated for 30 minutes with the compound of interest at the appropriate concentration in RPMI media containing 100 IU/mL penicillin, 100 ug/mL streptomycin. Following the pretreatment 2′,3′-O-(4-benzoylbenzoyl)-adenosine 5′-triphosphate (Sigma Aldrich Cat# B6396) is added to a final concentration of 250 uM and the cells incubated for an additional 45 minutes. 30 uL of cell supernatant is then collected and […] levels determined via ELISA (R&D systems Cat. # HSLB50) according to manufacturer's recommendations using the Tecan Safire plate reader. Background adjusted IL-1β levels of drug treated and non-treated cells are used to calculate the percent inhibition.
row,inhibition at 0.1 µM [%],Compound
1,≥ 75,O=C(CC12CC3CC(CC(C3)C1)C2)Nc1cccc2c1CCNC2=O [Compound 874]
2,≥ 75,CC12CC3CC(C)(C1)CC(CC(=O)Nc1cccc4c(=O)n(Cc5cn6ccccc6n5)ccc14)(C3)C2 [Compound 758]
3,25 to 50,CC12CC3CC(C)(C1)CC(CC(=O)Nc1cccc4c(=O)n(Cc5ccco5)ccc14)(C3)C2 [Compound 760]
4,≥ 75,CC(c1ccccn1)n1ccc2c(NC(=O)CC34CC5CC(CC(C5)C3)C4)cccc2c1=O (stereo not shown) [Compound 858]
5,≥ 75,Cc1cnc(Cn2ccc3c(NC(=O)CC45CC6CC(C)(CC(C)(C6)C4)C5)cccc3c2=O)cn1 [Compound 757]
6,≥ 75,CN1CCC(Cn2ccc3c(NC(=O)CC45CC6CC(CC(C6)C4)C5)cccc3c2=O)CC1 [Compound 767]
7,≥ 75,CC(C)(C)OC(=O)N1CCC[C@@H]1Cn1ccc2c(NC(=O)CC34CC5CC(CC(C5)C3)C4)cccc2c1=O [Compound 774]
8,≥ 75,O=C(CC12CC3CC(CC(C3)C1)C2)Nc1cccc2c(=O)n(C[C@@H]3CCCN3)ccc12 [Compound 810]
9,≥ 75,O=C(CC12CC3CC(CC(C3)C1)C2)Nc1cccc2c(=O)n(CCc3c[nH]cn3)ccc12 [Compound 808]
10,50 to 75,CC12CC3CC(C)(C1)CC(CC(=O)Nc1cccc4c1CCN(Cc1ccccc1F)C4=O)(C3)C2 [Compound 839]
11,≥ 75,NC(=O)[C@H](Cc1c[nH]cn1)n1ccc2c(NC(=O)CC34CC5CC(CC(C5)C3)C4)cccc2c1=O [Compound 882]
12,≥ 75,CCN(CC)CCn1ccc2c(NC(=O)CC34CC5CC(CC(C5)C3)C4)cccc2c1=O [Compound 870]
13,50 to 75,CC12CC3CC(C)(C1)CC(CC(=O)Nc1cccc4c(=O)n(CC5COCCO5)ccc14)(C3)C2 (stereo not shown) [Compound 762]
14,25 to 50,CN(C)CCn1ccc2c(NC(=O)CC34CC5CC(C)(CC(C)(C5)C3)C4)cccc2c1=O [Compound 763]
15,≥ 75,CC12CC3CC(C)(C1)CC(CC(=O)Nc1cccc4c(=O)[nH]ccc14)(C3)C2 [Compound 841]
16,≥ 75,CN1CCN(CCCN2CCc3c(NC(=O)CC45CC6CC(CC(C6)C4)C5)cccc3C2=O)CC1 [Compound 878]
17,≥ 75,O=C(CC12CC3CC(CC(C3)C1)C2)Nc1cccc2c1CCN(CC1CCOCC1)C2=O [Compound 833]
18,≥ 75,CC12CC3CC(C)(C1)CC(CC(=O)Nc1cccc4c1CCN(Cc1ccc5c(c1)OCCO5)C4=O)(C3)C2 [Compound 823]
19,≥ 75,CC(c1ccccc1)N1CCc2c(NC(=O)CC34CC5CC(C)(CC(C)(C5)C3)C4)cccc2C1=O (stereo not shown) [Compound 838]
20,≥ 75,O=C(CC12CC3CC(CC(C3)C1)C2)Nc1cccc2c(=O)n(CCCN3CCOCC3)ccc12 [Compound 781]

row,inhibition at 0.1 µM [%],Compound
1,≥ 75,CC12CC3CC(C)(C1)CC(CC(=O)Nc1cccc4c(=O)n(Cc5ccc(C(F)(F)F)cc5)ccc14)(C3)C2 [Compound 753]
2,≥ 75,CC12CC3CC(C)(C1)CC(CC(=O)Nc1cccc4c(=O)n(Cc5ccc(F)cc5F)ccc14)(C3)C2 [Compound 764]
3,≥ 75,Cc1cnc(CN2CCc3c(NC(=O)CC45CC6CC(C)(CC(C)(C6)C4)C5)cccc3C2=O)cn1 [Compound 778]
4,≥ 75,O=C(CC12CC3CC(CC(C3)C1)C2)Nc1cccc2c(=O)n(CCO)ccc12 [Compound 845]
5,≥ 75,O=C(CC12CC3CC(CC(C3)C1)C2)Nc1cccc2c1CCN(Cc1ccc(F)c(F)c1)C2=O [Compound 799]
6,≥ 75,O=C(CC12CC3CC(CC(C3)C1)C2)Nc1cccc2c(=O)n(Cc3nccs3)ccc12 [Compound 885]
7,≥ 75,CC(C)(C)OC(=O)N1CCCC1Cn1ccc2c(NC(=O)CC34CC5CC(CC(C5)C3)C4)cccc2c1=O (stereo not shown) [Compound 773]
8,50 to 75,CC12CC3CC(C)(C1)CC(CC(=O)Nc1cccc4c1CCN(CCN1CCOCC1)C4=O)(C3)C2 [Compound 815]
9,≥ 75,CN1CCN(CCCn2ccc3c(NC(=O)CC45CC6CC(CC(C6)C4)C5)cccc3c2=O)CC1 [Compound 787]
10,≥ 75,CC1CNC(CN2CCc3c(NC(=O)CC45CC6CC(CC(C6)C4)C5)cccc3C2=O)CN1 (stereo not shown) [Compound 806]
11,≥ 75,CN1CCC(CN2CCc3c(NC(=O)CC45CC6CC(CC(C6)C4)C5)cccc3C2=O)CC1 [Compound 794]
12,50 to 75,C[C@@H](c1ccccc1)n1ccc2c(NC(=O)CC34CC5CC(C)(CC(C)(C5)C3)C4)cccc2c1=O [Compound 818]
13,0 to 25,CC12CC3CC(C)(C1)CC(CC(=O)Nc1cccc4c1CCN(Cc1ccccn1)C4=O)(C3)C2 [Compound 807]
14,≥ 75,NC(=O)[C@H](Cc1ccccc1)n1ccc2c(NC(=O)CC34CC5CC(CC(C5)C3)C4)cccc2c1=O [Compound 776]
15,≥ 75,O=C(CC12CC3CC(CC(C3)C1)C2)Nc1cccc2c1CCN(CC1CCNCC1)C2=O [Compound 875]
16,≥ 75,CC12CC3CC(C)(C1)CC(CC(=O)Nc1cccc4c1CCN(Cc1c(F)cccc1F)C4=O)(C3)C2 [Compound 840]
17,≥ 75,O=C(CC12CC3CC(CC(C3)C1)C2)Nc1cccc2c(=O)n(Cc3ccoc3)ccc12 [Compound 873]
18,≥ 75,CC12CC3CC(C)(C1)CC(CC(=O)Nc1cccc4c1CCN(Cc1ccccc1)C4=O)(C3)C2 [Compound 777]
19,50 to 75,CS(=O)(=O)c1ccc(Cn2ccc3c(NC(=O)CC45CC6CC(CC(C6)C4)C5)cccc3c2=O)cc1 [Compound 768]
20,50 to 75,CCN1CCCC1Cn1ccc2c(NC(=O)CC34CC5CC(C)(CC(C)(C5)C3)C4)cccc2c1=O (stereo not shown) [Compound 772]

# Same assay, conditions: at 0.3 μM (plus symbols)
row,inhibition at 0.3 µM [%],Compound
1,≥ 75,CC(c1ccccc1)n1ccc2c(NC(=O)CC34CC5CC(CC(C5)C3)C4)cccc2c1=O (stereo not shown) [Compound 711]
2,≥ 75,C[C@@H](c1ccccc1)n1ccc2c(NC(=O)CC34CC5CC(CC(C5)C3)C4)cccc2c1=O [Compound 720]
3,≥ 75,CC(C)(C)OC(=O)N1CCC(Cn2ccc3c(NC(=O)CC45CC6CC(CC(C6)C4)C5)cccc3c2=O)CC1 [Compound 748]
4,≥ 75,O=C(CC12CC3CC(CC(C3)C1)C2)Nc1cccc2c1CCN(Cc1ccco1)C2=O [Compound 730]
5,≥ 75,O=C(CC12CC3CC(CC(C3)C1)C2)Nc1cccc2c(=O)n(Cc3ccncc3)ccc12 [Compound 716]
6,≥ 75,O=C(CC12CC3CC(CC(C3)C1)C2)Nc1cccc2c(=O)n(Cc3cccnc3)ccc12 [Compound 715]
7,≥ 75,CCN1CCCC1Cn1ccc2c(NC(=O)CC34CC5CC(CC(C5)C3)C4)cccc2c1=O (stereo not shown) [Compound 750]
8,≥ 75,CN1CCC(Cn2ccc3c(NC(=O)CC45CC6CC(C)(CC(C)(C6)C4)C5)cccc3c2=O)CC1 [Compound 746]
9,≥ 75,CC12CC3CC(C)(C1)CC(CC(=O)Nc1cccc4c(=O)n(CCCN5CCOCC5)ccc14)(C3)C2 [Compound 892]
10,≥ 75,C[C@@H](CO)n1ccc2c(NC(=O)CC34CC5CC(CC(C5)C3)C4)cccc2c1=O [Compound 896]
11,≥ 75,O=C(CC12CC3CC(CC(C3)C1)C2)Nc1cccc2c1CCN(Cc1cccnc1)C2=O [Compound 728]
12,≥ 75,CN(C)c1ccc(Cn2ccc3c(NC(=O)CC45CC6CC(CC(C6)C4)C5)cccc3c2=O)cc1 [Compound 747]
13,≥ 75,"O=C(CC12CC3CC(CC(C3)C1)C2)Nc1cccc2c(=O)n(Cc3ccc(F)cc3)ccc12 [Compound 703, 2-Adamantan-1-yl-N-[2-(4-fluoro-benzyl)-1-oxo-1,2-dihydro-isoquinolin-5-yl]-acetamide]"
14,≥ 75,CC12CC3CC(C)(C1)CC(CC(=O)Nc1cccc4c(=O)n(CC5CCNCC5)ccc14)(C3)C2 [Compound 890]
15,≥ 75,C[C@H](CO)n1ccc2c(NC(=O)CC34CC5CC(CC(C5)C3)C4)cccc2c1=O [Compound 897]
16,≥ 75,O=C(CC12CC3CC(CC(C3)C1)C2)Nc1cccc2c(=O)n(Cc3ccccc3F)ccc12 [Compound 706]
17,50 to 75,C=Cn1ccc2c(N(C)C(=O)CC34CC5CC(CC(C5)C3)C4)cccc2c1=O [Compound 891]
18,≥ 75,O=C(CC12CC3CC(CC(C3)C1)C2)Nc1cccc2c1CCN(CC1CCCO1)C2=O (stereo not shown) [Compound 726]
